What was measured:
[1] = molecular target: T1, rice GSNOR (Oryza sativa, UniProt Q0DWH1); experiment: surface plasmon resonance (OpenSPR); assay type: binding
T1 construct: gene Os02g0815500

[2] = molecular target: T2, GSNOR (M. oryzae) (Pyricularia oryzae, UniProt G4N4N6); experiment: biochemical
T2 construct: gene MGG_06011
T2 sequence (G4N4N6 1-381): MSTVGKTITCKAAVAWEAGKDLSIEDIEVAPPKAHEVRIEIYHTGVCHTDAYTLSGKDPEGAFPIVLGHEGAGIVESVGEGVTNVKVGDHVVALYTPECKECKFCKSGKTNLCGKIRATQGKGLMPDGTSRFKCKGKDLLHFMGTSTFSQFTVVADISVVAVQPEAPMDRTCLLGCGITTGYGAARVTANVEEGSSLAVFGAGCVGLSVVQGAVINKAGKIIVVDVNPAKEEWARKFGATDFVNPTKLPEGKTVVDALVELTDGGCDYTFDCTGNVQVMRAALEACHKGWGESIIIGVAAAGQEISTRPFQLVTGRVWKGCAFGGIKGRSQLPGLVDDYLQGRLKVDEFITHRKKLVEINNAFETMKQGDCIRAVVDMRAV

T1 sequence (Q0DWH1 whole entry): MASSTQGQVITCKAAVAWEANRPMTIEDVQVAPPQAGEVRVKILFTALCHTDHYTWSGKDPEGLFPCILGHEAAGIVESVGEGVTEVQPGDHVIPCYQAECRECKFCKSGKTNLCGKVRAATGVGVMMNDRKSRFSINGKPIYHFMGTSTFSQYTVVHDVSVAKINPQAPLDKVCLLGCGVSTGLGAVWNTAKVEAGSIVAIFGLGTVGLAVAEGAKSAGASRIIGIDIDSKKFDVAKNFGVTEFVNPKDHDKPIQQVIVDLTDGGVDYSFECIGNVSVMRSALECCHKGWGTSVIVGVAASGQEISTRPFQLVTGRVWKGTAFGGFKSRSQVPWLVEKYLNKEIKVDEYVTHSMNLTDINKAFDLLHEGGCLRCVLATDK

For `Cc1cc(C(N)=O)ccc1-n1c(CCC(=O)O)ccc1-c1ccc(-n2ccnc2)cc1` [N6022], the Kd [1] was 288 µM and the Kd [2] was 55.8 µM.

Source: publication PMC11234416 (Advanced Science, 2024)
